Holding throughout (assay): biochemical
Assay [1] concerns recombinant wildtype and mutated PPO (Amaranthus PPO2: PPX2L_WC SEQ ID NO 2, PPX2L_AC SEQ ID NO 4, dG210 SEQ ID NO 6 & 8). Set-up: species or system Amaranthus tuberculatus.
The target of assay [2] is recombinant wildtype and mutated PPO (Amaranthus PPO2: PPX2L_WC SEQ ID NO 2, PPX2L_AC SEQ ID NO 4, dG210 SEQ ID NO 6 & 8) (Amaranthus tuberculatus, UniProt Q0NZW9, D133A/F420V/R128H). The conditions noted are these: IC50 (M).
The target in assay [3] is T1, recombinant wildtype and mutated PPO (Amaranthus PPO2: PPX2L_WC SEQ ID NO 2, PPX2L_AC SEQ ID NO 4, dG210 SEQ ID NO 6 & 8) (Amaranthus tuberculatus, UniProt Q0NZW9, D133A/F420M/R128I).
T1 sequence (Q0NZW9 1-534 R128I/D133A/F420M): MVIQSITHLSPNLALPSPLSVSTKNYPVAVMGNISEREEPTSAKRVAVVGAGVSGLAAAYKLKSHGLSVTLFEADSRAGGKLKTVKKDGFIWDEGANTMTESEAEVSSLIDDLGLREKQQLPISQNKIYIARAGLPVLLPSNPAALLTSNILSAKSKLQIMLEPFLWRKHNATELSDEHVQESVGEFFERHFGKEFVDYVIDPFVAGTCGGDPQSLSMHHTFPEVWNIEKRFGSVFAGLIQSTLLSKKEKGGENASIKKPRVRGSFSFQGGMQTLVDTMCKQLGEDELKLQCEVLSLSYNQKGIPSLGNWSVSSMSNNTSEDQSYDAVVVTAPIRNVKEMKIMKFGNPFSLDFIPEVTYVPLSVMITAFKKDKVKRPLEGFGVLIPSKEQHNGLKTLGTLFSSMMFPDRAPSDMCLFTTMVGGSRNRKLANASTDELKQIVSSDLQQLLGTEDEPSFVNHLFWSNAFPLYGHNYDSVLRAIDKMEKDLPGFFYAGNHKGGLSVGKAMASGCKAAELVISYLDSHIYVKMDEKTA
As to conditions: IC50 (M).

Assay [4] deals with T2, recombinant wildtype and mutated PPO (Amaranthus PPO2: PPX2L_WC SEQ ID NO 2, PPX2L_AC SEQ ID NO 4, dG210 SEQ ID NO 6 & 8) (Amaranthus tuberculatus, UniProt Q0NZW9, D133A/F420M/R128T).
T2 sequence (Q0NZW9 1-534 R128T/D133A/F420M): T1 sequence (Q0NZW9 1-534 R128I/D133A/F420M) with I128T
The conditions noted are these: IC50 (M).

Assay [5] addresses T3, recombinant wildtype and mutated PPO (Amaranthus PPO2: PPX2L_WC SEQ ID NO 2, PPX2L_AC SEQ ID NO 4, dG210 SEQ ID NO 6 & 8) (Amaranthus tuberculatus, UniProt Q0NZW9, D133A/F420M/R128Q).
T3 sequence (Q0NZW9 1-534 R128Q/D133A/F420M): T1 sequence (Q0NZW9 1-534 R128I/D133A/F420M) with I128Q
As to conditions: IC50 (M).

In assay [6] the target is recombinant wildtype and mutated PPO (Amaranthus PPO2: PPX2L_WC SEQ ID NO 2, PPX2L_AC SEQ ID NO 4, dG210 SEQ ID NO 6 & 8) (Amaranthus tuberculatus, UniProt Q0NZW9, D133A/F420L/R128H). The conditions noted are these: IC50 (M).
recombinant wildtype and mutated PPO (Amaranthus PPO2: PPX2L_WC SEQ ID NO 2, PPX2L_AC SEQ ID NO 4, dG210 SEQ ID NO 6 & 8) (Amaranthus tuberculatus, UniProt Q0NZW9, D133A/F420L/R128H), sequence (Q0NZW9 1-534 R128H/D133A/F420L): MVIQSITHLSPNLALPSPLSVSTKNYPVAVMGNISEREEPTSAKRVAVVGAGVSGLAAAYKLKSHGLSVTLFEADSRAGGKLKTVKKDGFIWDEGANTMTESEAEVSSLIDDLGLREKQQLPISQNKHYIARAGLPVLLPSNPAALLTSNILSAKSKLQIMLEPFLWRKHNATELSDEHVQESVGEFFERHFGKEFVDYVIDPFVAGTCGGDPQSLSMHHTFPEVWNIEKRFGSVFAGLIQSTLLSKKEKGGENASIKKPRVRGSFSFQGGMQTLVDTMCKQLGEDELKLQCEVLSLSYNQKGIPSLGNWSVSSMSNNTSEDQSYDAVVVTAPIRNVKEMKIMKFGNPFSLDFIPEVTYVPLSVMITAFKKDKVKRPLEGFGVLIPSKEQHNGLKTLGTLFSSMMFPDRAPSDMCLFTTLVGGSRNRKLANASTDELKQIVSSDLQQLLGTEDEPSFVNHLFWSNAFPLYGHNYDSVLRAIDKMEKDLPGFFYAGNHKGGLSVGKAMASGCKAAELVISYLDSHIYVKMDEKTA
The target of assay [7] is T4, recombinant wildtype and mutated PPO (Amaranthus PPO2: PPX2L_WC SEQ ID NO 2, PPX2L_AC SEQ ID NO 4, dG210 SEQ ID NO 6 & 8) (Amaranthus tuberculatus, UniProt Q0NZW9).
T4 sequence (Q0NZW9 1-534): T1 sequence (Q0NZW9 1-534 R128I/D133A/F420M) with I128R, A133D, M420F

What is called IC50 is the point on the concentration scale where inhibition reaches its midpoint.

Where a chain is given by its changes, count along the chain named. Values joined by “and” are separate entries in the source; they are usually repeats but may differ in a detail not shown here. Identical values can stand only once.

recombinant wildtype and mutated PPO (Amaranthus PPO2: PPX2L_WC SEQ ID NO 2, PPX2L_AC SEQ ID NO 4, dG210 SEQ ID NO 6 & 8) (Amaranthus tuberculatus, UniProt Q0NZW9, D133A/F420V/R128H), sequence (Q0NZW9 1-534 R128H/D133A/F420V): as the sequence (Q0NZW9 1-534 R128H/D133A/F420L) above, with L420V counted along it

As to `C#CCN1C(=O)COc2cc(F)c(N3C(=O)C4=C(CCCC4)C3=O)cc21` [Flumioxazin, flumioxazin], the “inhibition (%) at 1 × 10−5M” value in assay [1] was 41% and 48% and 30%.
`C#CCN1C(=O)C(F)(F)Oc2cc(F)c(-n3c(=O)n(C)c(=S)n(C)c3=O)cc21`: the concentration for half-maximal inhibition (IC50) in assay [2] stood at 7.63e-08 M; in assay [3], 6.1e-08 M; in assay [4], 4.33e-08 M; in assay [5] it was 1.07e-08 M; in assay [6], 7.98e-08 M.
With `COC(=O)C(OC)Oc1ccccc1Oc1cc(-n2c(=O)cc(C(F)(F)F)n(C)c2=O)c(F)cc1Cl` (centres unmarked), the concentration for half-maximal inhibition (IC50) in assay [7] was determined as 0.000411 µM; in assay [2], 6.93e-09 M; in assay [3] it was 1.15e-08 M; in assay [4], 2.79e-08 M; in assay [5], 7.14e-08 M; in assay [6], 4.47e-08 M.
Regarding `O=C(O)c1cc(Oc2ccc(C(F)(F)F)cc2Cl)ccc1[N+](=O)[O-]` [ACIFLUORFEN], the “inhibition (%) at 1 × 10−5M” value in assay [1] was 39% and 33% and 27%.
Consider `COC(Oc1ccccc1Oc1cc(-n2c(=O)cc(C(F)(F)F)n(C)c2=O)c(F)cc1Cl)C(=O)OC1CCCCC1` (centres unmarked), for which the half-maximal inhibitory concentration (IC50) was 9.06e-08 M in assay [2]; 1.06e-08 M in assay [3]; 1.17e-07 M in assay [4]; 1.72e-07 M in assay [5]; 6.93e-07 M in assay [6].
For the compound `C#CCN1C(=O)C(F)(F)Oc2cc(F)c(N3C(=O)C4=C(CCCC4)C3=O)cc21`, in assay [7], the IC50 amounted to 0.000146 µM.
Same read-out and setting: under `C#CCN1C(=O)C(F)(F)Oc2cc(F)c(-n3c(=O)cc(C(F)(F)F)n(C)c3=O)cc21` stands 0.000315 µM.

Source of the values: patent US11866720B2, “Transgenic or non-transgenic plants with mutated protoporphyrinogen oxidase having increased tolerance to herbicides” (priority 2013, dated 2024).
